The values that follow are results of earlier work, collected in patent US20220228277A1, “COMPACT GENERATOR FOR GENERATING STERILIZING MATERIALS” (priority 2021, published 2022).

The conditions of data set [1]: environment dependent.
For data set [2] the following is noted: 20° C. water; also printed as 29.9 ppm.
For data set [3] the following is noted: in a year.

Consider `O=[O+][O-]` [O3, ozone], for which, in data set [1], the “natural life of O3 (turns into O2)” value is 20 to 30 min. Moreover, in data set [2], the “solubility of O3 in water” value is 29.9 µg/mL.

In the case of `OO` [H2O2, hydrogen peroxide], the “decay of sealed H2O2-H2O solution” value in data set [3] is 10%.
